Reference: ChEMBL document CHEMBL3217699, “Discovery of potent, proteolytically stable, and cell permeable human sirtuin peptidomimetic inhibitors containing N-thioacetyl-lysine” (Medchemcomm, 2010)
The source made the active and inactive calls. No cut-off for these calls is given here. Where a SMILES comes first, the peptide text is derived from it.

How the values were obtained:
[1] = target: T1, NAD-dependent protein deacetylase sirtuin-1 (Homo sapiens, UniProt Q96EB6); assay: Inhibition of human SIRT1 using peptide substrate assessed as deacetylase activity
T1 sequence (Q96EB6 whole entry): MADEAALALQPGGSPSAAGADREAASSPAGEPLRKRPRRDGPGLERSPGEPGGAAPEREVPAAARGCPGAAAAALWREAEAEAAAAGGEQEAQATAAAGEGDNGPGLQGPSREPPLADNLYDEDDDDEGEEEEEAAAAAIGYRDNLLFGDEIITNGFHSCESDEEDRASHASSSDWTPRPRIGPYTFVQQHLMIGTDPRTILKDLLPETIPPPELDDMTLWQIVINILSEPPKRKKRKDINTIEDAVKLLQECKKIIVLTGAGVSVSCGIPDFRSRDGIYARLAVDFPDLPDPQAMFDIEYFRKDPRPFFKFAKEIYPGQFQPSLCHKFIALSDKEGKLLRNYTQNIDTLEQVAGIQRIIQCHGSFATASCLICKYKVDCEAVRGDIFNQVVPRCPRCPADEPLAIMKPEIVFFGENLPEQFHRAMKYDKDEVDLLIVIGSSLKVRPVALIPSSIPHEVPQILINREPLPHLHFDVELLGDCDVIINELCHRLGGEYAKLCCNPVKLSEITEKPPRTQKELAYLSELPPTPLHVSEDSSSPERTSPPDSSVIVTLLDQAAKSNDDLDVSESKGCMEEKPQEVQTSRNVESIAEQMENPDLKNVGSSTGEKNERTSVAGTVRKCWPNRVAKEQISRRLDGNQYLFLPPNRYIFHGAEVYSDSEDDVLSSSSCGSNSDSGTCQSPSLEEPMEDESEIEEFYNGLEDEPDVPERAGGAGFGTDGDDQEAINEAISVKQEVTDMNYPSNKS

[2] = target: T2, Histone deacetylase 8 (Homo sapiens) (UniProt Q9BY41); assay: Activity of recombinant HDAC8 (unknown origin) assessed as compound deacetylation measured up to 4 hrs by time course assay
T2 sequence (whole entry): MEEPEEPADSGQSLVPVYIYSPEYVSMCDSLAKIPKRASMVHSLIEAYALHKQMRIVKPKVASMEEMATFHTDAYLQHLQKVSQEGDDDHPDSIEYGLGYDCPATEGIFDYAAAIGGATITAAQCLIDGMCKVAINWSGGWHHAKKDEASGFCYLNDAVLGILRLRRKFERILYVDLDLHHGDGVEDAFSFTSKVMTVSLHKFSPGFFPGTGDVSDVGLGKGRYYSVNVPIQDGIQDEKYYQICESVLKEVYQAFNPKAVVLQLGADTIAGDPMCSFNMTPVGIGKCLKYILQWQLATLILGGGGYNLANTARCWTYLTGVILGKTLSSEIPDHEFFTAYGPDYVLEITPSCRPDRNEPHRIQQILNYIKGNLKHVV

[3] = Proteolytic stability of the compound assessed as degradation after 30 mins by HPLC in presence of pronase; type: ADME; settings: 0.5 h
[4] = target: T3, NAD-dependent protein deacetylase sirtuin-2 (Homo sapiens) (UniProt Q8IXJ6); assay: Ratio of AGK2 to compound in GST-tagged SIRT2 (unknown origin)
T3 sequence (whole entry): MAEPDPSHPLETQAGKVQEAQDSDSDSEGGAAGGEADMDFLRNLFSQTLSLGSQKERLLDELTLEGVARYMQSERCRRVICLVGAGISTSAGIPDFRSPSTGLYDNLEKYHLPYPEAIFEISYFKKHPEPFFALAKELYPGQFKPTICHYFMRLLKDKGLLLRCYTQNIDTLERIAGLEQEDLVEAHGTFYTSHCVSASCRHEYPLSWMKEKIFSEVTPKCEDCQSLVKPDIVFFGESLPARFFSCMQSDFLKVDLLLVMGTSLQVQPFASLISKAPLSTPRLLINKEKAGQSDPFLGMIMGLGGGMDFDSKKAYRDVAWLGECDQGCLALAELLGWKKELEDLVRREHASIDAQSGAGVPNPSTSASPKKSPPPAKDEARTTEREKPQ

[5] = target: Histone deacetylase 2 (Homo sapiens) (UniProt Q92769); assay: Activity of HDAC2 in human HeLa cells nuclear extract assessed as compound deacetylation measured up to 2 hrs by time course assay; type: cell-free
Sequence of Histone deacetylase 2 (Homo sapiens) (Q92769 whole entry): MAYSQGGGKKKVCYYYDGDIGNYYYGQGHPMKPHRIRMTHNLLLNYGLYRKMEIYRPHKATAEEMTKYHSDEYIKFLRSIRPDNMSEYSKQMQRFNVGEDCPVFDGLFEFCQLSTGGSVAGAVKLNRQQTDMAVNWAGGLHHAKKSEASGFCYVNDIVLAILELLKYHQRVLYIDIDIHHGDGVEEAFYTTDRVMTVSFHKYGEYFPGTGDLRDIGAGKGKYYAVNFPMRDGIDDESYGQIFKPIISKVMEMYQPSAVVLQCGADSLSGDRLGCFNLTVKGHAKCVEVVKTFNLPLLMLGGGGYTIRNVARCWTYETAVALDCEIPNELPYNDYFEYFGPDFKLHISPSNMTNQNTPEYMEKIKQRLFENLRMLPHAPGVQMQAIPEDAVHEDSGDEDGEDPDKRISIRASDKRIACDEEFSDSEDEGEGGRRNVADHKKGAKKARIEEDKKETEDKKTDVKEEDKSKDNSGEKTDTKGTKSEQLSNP

[6] = target: T4, NAD-dependent protein deacetylase sirtuin-2 (Homo sapiens, UniProt Q8IXJ6); assay: Inhibition of GST-tagged SIRT2 (unknown origin) by HPLC assay
T4 sequence (Q8IXJ6 whole entry): T3 sequence (whole entry)

[7] = target: T5, NAD-dependent protein deacetylase sirtuin-1 (Homo sapiens) (UniProt Q96EB6); assay: Inhibition of SIRT1 in human HCT116 cells assessed as increase in p53 acetylation level by Western blot analysis; type: cell-based; settings: HCT-116
T5 sequence (whole entry): T1 sequence (Q96EB6 whole entry)

[8] = target: T3, NAD-dependent protein deacetylase sirtuin-2 (Homo sapiens); assay: Activity of GST-tagged SIRT2 (unknown origin) assessed as compound deacetylation measured up to 4 hrs by sirutin time course assay
[9] = target: T6, NAD-dependent protein deacetylase sirtuin-3, mitochondrial (Homo sapiens) (UniProt Q9NTG7); assay: Activity of GST-tagged SIRT3 (unknown origin) assessed as compound deacetylation measured up to 4 hrs by sirutin time course assay
T6 sequence (whole entry): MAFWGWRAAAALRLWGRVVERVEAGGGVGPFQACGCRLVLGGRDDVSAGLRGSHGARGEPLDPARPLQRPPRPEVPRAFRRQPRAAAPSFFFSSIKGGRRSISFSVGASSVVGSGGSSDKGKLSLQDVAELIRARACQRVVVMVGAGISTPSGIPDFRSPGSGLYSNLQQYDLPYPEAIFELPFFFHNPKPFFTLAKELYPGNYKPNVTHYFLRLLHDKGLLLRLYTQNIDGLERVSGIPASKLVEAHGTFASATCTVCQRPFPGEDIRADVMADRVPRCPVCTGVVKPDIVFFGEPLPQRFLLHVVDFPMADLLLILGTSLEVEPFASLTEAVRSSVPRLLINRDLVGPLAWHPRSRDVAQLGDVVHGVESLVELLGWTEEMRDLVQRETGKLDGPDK

[10] = target: T5, NAD-dependent protein deacetylase sirtuin-1 (Homo sapiens); assay: Inhibition of SIRT1 in human HCT116 cells assessed as increase in p53 acetylation level at 3 uM by Western blot analysis; type: cell-based; settings: HCT-116
[11] = target: Histone deacetylase 1 (Homo sapiens) (UniProt Q13547); assay: Activity of HDAC1 in human HeLa cells nuclear extract assessed as compound deacetylation measured up to 2 hrs by time course assay; type: cell-free
Sequence of Histone deacetylase 1 (Homo sapiens) (Q13547 whole entry): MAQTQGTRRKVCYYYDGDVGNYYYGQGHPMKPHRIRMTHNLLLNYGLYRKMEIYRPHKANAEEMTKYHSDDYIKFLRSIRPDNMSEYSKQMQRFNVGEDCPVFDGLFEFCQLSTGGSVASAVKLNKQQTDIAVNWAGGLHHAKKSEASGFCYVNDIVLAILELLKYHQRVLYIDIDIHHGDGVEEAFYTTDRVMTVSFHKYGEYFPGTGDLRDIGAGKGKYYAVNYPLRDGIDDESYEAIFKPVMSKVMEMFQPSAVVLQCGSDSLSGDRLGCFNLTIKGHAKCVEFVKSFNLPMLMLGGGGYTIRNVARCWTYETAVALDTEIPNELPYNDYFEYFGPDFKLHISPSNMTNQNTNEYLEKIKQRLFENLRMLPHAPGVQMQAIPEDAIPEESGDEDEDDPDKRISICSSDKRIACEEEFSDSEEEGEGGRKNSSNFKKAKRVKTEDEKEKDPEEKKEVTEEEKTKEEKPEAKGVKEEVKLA

[12] = target: T7, NAD-dependent protein deacetylase sirtuin-3, mitochondrial (Homo sapiens, UniProt Q9NTG7); assay: Inhibition of GST-tagged SIRT3 (unknown origin) by HPLC assay
T7 sequence (Q9NTG7 whole entry): T6 sequence (whole entry)

[13] = target: T5, NAD-dependent protein deacetylase sirtuin-1 (Homo sapiens); assay: Activity of GST-tagged SIRT1 (unknown origin) assessed as compound deacetylation measured up to 4 hrs by sirutin time course assay
[14] = target: T5, NAD-dependent protein deacetylase sirtuin-1 (Homo sapiens); settings: HCT-116, 10 uM
Description: Inhibition of SIRT1 in human HCT116 cells assessed as increase in p53 acetylation level at 10 uM by Western blot analysis

[15] = target: T5, NAD-dependent protein deacetylase sirtuin-1 (Homo sapiens); assay: Inhibition of SIRT1 in human HCT116 cells assessed as increase in p53 acetylation level at 500 uM by Western blot analysis; type: cell-based; settings: HCT-116
[16] = target: T5, NAD-dependent protein deacetylase sirtuin-1 (Homo sapiens); assay: Inhibition of SIRT1 in human HCT116 cells assessed as increase in p53 acetylation level at 5 uM by Western blot analysis; type: cell-based; settings: HCT-116

Q: Which IC50 [1] does the source give for CSCC[C@H](NC(=O)[C@H](CC(C)C)NC(=O)[C@H](CCCCNC(C)=S)NC(=O)[C@H](Cc1ccc(O)cc1)NC(=O)[C@H](Cc1c[nH]cn1)NC(C)=O)C(N)=O (HELM PEPTIDE1{[ac].H.Y.[CC(=S)NCCCC[C@H](N[*:1])C(=O)[*:2]].L.M.[am]}$$$$V2.0) here?
A: Its IC50 is 4.2 µM.

Q: Which results are given for CC(=O)NCCCC[C@H](NC(=O)[C@H](CCCCNC(C)=S)NC(=O)[C@H](CCCCNC(C)=O)NC(C)=O)C(N)=O?
A: Activity [2]: inactive; Stability [3]: Stable; Ratio [4]: 23; Activity [5]: 19%; IC50 [6]: 2.4 µM; IC50 [1]: 2.1 µM; inhibition [7]: Dose-dependent effect; Activity [8]: inactive; Activity [9]: inactive; inhibition [10]: Active; Activity [11]: 19%; IC50 [12]: 4.5 µM; Activity [13]: inactive

Q: With CC(=S)NCCCC[C@H](NC(=O)OCc1ccccc1)C(=O)Nc1ccccc1 as the compound, how does the IC50 [1] read?
A: Its IC50 is 140 µM.

Q: And the inhibition [14]?
A: The inhibition was “inactive”.

Q: For CSCC[C@H](NC(=O)[C@H](Cc1ccc(O)cc1)NC(=O)[C@H](CCCCNC(C)=S)NC(=O)[C@H](Cc1ccc(O)cc1)NC(=O)[C@H](Cc1c[nH]cn1)NC(C)=O)C(N)=O (HELM PEPTIDE1{[ac].H.Y.[CC(=S)NCCCC[C@H](N[*:1])C(=O)[*:2]].Y.M.[am]}$$$$V2.0), which IC50 [1] is on record?
A: The IC50 was 6 µM.

Q: Which IC50 [1] does the source give for CSCC[C@H](NC(=O)[C@H](CC(C)C)NC(=O)[C@H](CCCCNC(C)=S)NC(=O)[C@H](CCCCNC(C)=O)NC(=O)[C@H](Cc1c[nH]cn1)NC(C)=O)C(N)=O (HELM PEPTIDE1{[ac].H.K.[CC(=S)NCCCC[C@H](N[*:1])C(=O)[*:2]].L.M.[am]}|PEPTIDE2{[ac]}$PEPTIDE1,PEPTIDE2,3:R3-1:R2$$$V2.0) here?
A: The IC50 was 4.1 µM.

Q: For CSCC[C@H](NC(=O)[C@H](CCCCNC(C)=O)NC(=O)[C@H](CCCCNC(C)=S)NC(=O)[C@H](CCCCNC(C)=O)NC(=O)[C@H](Cc1c[nH]cn1)NC(C)=O)C(N)=O (HELM PEPTIDE1{[ac].H.K.[CC(=S)NCCCC[C@H](N[*:1])C(=O)[*:2]].K.M.[am]}|PEPTIDE2{[ac]}|PEPTIDE3{[ac]}$PEPTIDE1,PEPTIDE2,3:R3-1:R2|PEPTIDE1,PEPTIDE3,5:R3-1:R2$$$V2.0), which IC50 [1] is on record?
A: The IC50 was 2 µM.

Q: For CSCC[C@H](NC(=O)[C@H](CCCCNC(C)=O)NC(=O)[C@H](CCCCNC(C)=S)NC(=O)[C@H](CCCCN)NC(=O)[C@H](Cc1c[nH]cn1)NC(C)=O)C(N)=O (HELM PEPTIDE1{[ac].H.K.[CC(=S)NCCCC[C@H](N[*:1])C(=O)[*:2]].K.M.[am]}|PEPTIDE2{[ac]}$PEPTIDE1,PEPTIDE2,5:R3-1:R2$$$V2.0), which IC50 [1] is on record?
A: The IC50 was 0.7 µM.

Q: For CSCC[C@H](NC(=O)[C@H](Cc1ccc(O)cc1)NC(=O)[C@H](CCCCNC(C)=S)NC(=O)[C@H](CCCCN)NC(=O)[C@H](Cc1c[nH]cn1)NC(C)=O)C(N)=O (HELM PEPTIDE1{[ac].H.K.[CC(=S)NCCCC[C@H](N[*:1])C(=O)[*:2]].Y.M.[am]}$$$$V2.0), which IC50 [1] is on record?
A: The IC50 was 3.5 µM.

Q: With CSCC[C@H](NC(=O)[C@H](CC(C)C)NC(=O)[C@H](CCCC/N=C(/C)S)NC(=O)[C@H](CCCCN)NC(=O)[C@H](Cc1c[nH]cn1)NC(=O)[C@H](CCCN=C(N)N)NC(=O)[C@H](CO)NC(=O)[C@@H](NC(=O)[C@H](CO)NC(=O)[C@H](CCC(N)=O)NC(=O)CNC(=O)[C@H](CCCCN)NC(=O)[C@@H](N)CCCCN)[C@@H](C)O)C(=O)N[C@@H](Cc1ccccc1)C(=O)N[C@@H](CCCCN)C(=O)N[C@H](C(=O)N[C@@H](CCC(=O)O)C(=O)NCC(=O)O)[C@@H](C)O as the compound, how does the inhibition [15] read?
A: The inhibition was “inactive”.

Q: Which Activity [2] does the source give for CC(=O)NCCC[C@H](NC(=O)[C@H](CCCCNC(C)=S)NC(=O)[C@H](CCCNC(C)=O)NC(C)=O)C(N)=O here?
A: The Activity was “inactive”.

Q: What about the Stability [3] of the same compound?
A: The Stability was “Stable”.

Q: What about the Activity [5] of the same compound?
A: The Activity was “inactive”.

Q: What about the IC50 [6] of the same compound?
A: Its IC50 is 2.9 µM.

Q: What about the IC50 [1] of the same compound?
A: The IC50 was 5.9 µM.

Q: What about the Activity [8] of the same compound?
A: Its Activity is “inactive”.

Q: What about the Activity [9] of the same compound?
A: Its Activity is “inactive”.

Q: And the Activity [11]?
A: The Activity was “inactive”.

Q: What about the inhibition [16] of the same compound?
A: The inhibition was “Active”.

Q: What about the IC50 [12] of the same compound?
A: Its IC50 is 4.3 µM.

Q: And the Activity [13]?
A: The Activity was “inactive”.
